Experimental data published in ChEMBL document CHEMBL1201862, “PubChem BioAssay data set” (2004).
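Each compound was tested at five concentrations against cells in 96-well plates for 48 hours. GI50 = concentration required for 50% inhibition of growth.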 Calls of active or inactive are those of the source. Rule as the data show it: active = GI50 up to about 1.1 µM and inactive = higher.

Legend:
Assay in all cases: DTP human tumour cell line panel, 48 h
786-0 = tested on: 786-0
RXF 393 = tested on: RXF 393
UACC-62 = tested on: UACC-62
OVCAR-4 = tested on: OVCAR-4
KM12 = tested on: KM12
MOLT-4 = tested on: MOLT-4
UO-31 = tested on: UO-31
HT-29 = tested on: HT-29
EKVX = tested on: EKVX
COLO 205 = tested on: COLO 205
CCRF-CEM = tested on: CCRF-CEM
NCI-H226 = tested on: NCI-H226
SK-OV-3 = tested on: SK-OV-3
T47D = tested on: T47D
RPMI-8226 = tested on: RPMI-8226
Hs-578T = tested on: Hs-578T
PC-3 = tested on: PC-3
M14 = tested on: M14
OVCAR-8 = tested on: OVCAR-8

Measured: GI50

COc1ccc(/C(CC2OC(=O)c3ccccc32)=N\NC(N)=O)cc1 (centres undefined)
inactive: 786-0 > 100 µM | RXF 393 > 100 µM | UACC-62 > 100 µM | OVCAR-4 > 100 µM | KM12 > 100 µM | MOLT-4 > 100 µM | UO-31 > 100 µM | HT-29 > 100 µM | EKVX > 100 µM | COLO 205 > 100 µM | CCRF-CEM > 100 µM | NCI-H226 > 100 µM | SK-OV-3 > 100 µM | T47D > 100 µM | RPMI-8226 > 100 µM | Hs-578T > 100 µM | PC-3 > 100 µM | M14 > 100 µM | OVCAR-8 > 100 µM

COc1ccc(OC)c(/C=C/c2ccnc3ccccc23)c1
active: 786-0 0.482 µM | RXF 393 0.377 µM | UACC-62 0.307 µM | OVCAR-4 0.863 µM | KM12 0.312 µM | MOLT-4 0.519 µM | UO-31 0.458 µM | HT-29 0.321 µM | EKVX 0.463 µM | COLO 205 0.277 µM | CCRF-CEM 0.337 µM | NCI-H226 0.441 µM | SK-OV-3 0.403 µM | RPMI-8226 0.773 µM | Hs-578T 0.34 µM | PC-3 0.514 µM | M14 0.375 µM | OVCAR-8 0.191 µM
inactive: T47D 1.63 µM

Cc1nc(C)c(N2CCN(S(N)(=O)=O)CC2)c(O)n1
inactive: 786-0 > 100 µM | RXF 393 > 100 µM | UACC-62 > 100 µM | OVCAR-4 > 100 µM | KM12 > 100 µM | MOLT-4 > 100 µM | UO-31 > 100 µM | HT-29 > 100 µM | EKVX > 100 µM | COLO 205 > 100 µM | CCRF-CEM > 100 µM | NCI-H226 > 100 µM | SK-OV-3 > 100 µM | T47D > 100 µM | RPMI-8226 > 100 µM | Hs-578T > 100 µM | PC-3 > 100 µM | M14 > 100 µM | OVCAR-8 > 100 µM

CC(C)(C)OC(=O)N(O)[C@@H]1CC[C@H](n2cnc3c(N)ncnc32)C1
inactive: 786-0 > 100 µM | RXF 393 > 100 µM | UACC-62 > 100 µM | OVCAR-4 > 100 µM | KM12 > 100 µM | MOLT-4 > 100 µM | UO-31 96.8 µM | HT-29 > 100 µM | EKVX > 100 µM | COLO 205 > 100 µM | CCRF-CEM > 100 µM | NCI-H226 > 100 µM | SK-OV-3 > 100 µM | T47D > 100 µM | RPMI-8226 > 100 µM | Hs-578T > 100 µM | PC-3 > 100 µM | M14 > 100 µM | OVCAR-8 > 100 µM

Nc1cccc(OCC2CCCN3CCCCC23)c1 (centres undefined)
inactive: 786-0 15.6 µM | RXF 393 20.5 µM | UACC-62 17.1 µM | OVCAR-4 23.2 µM | KM12 17.6 µM | MOLT-4 20.9 µM | UO-31 27.2 µM | HT-29 12.6 µM | EKVX 17.2 µM | COLO 205 19.5 µM | CCRF-CEM 15.2 µM | NCI-H226 41.7 µM | SK-OV-3 72.9 µM | T47D 17.8 µM | RPMI-8226 15.2 µM | Hs-578T 16.7 µM | PC-3 16.9 µM | M14 20 µM | OVCAR-8 18.7 µM

CC(C)CC(=O)OC[n+]1cccc(-c2c(COC(=O)NC(C)C)c(COC(=O)NC(C)C)c3n2CCC3)c1
inactive: 786-0 27.5 µM | RXF 393 33.9 µM | UACC-62 25.6 µM | OVCAR-4 38.5 µM | KM12 > 100 µM | MOLT-4 38 µM | UO-31 31.3 µM | HT-29 52.6 µM | EKVX > 100 µM | COLO 205 70.3 µM | CCRF-CEM 34.1 µM | NCI-H226 > 100 µM | SK-OV-3 55.3 µM | T47D 51.3 µM | RPMI-8226 15.2 µM | Hs-578T 74.1 µM | PC-3 48.1 µM | M14 61.4 µM | OVCAR-8 48.8 µM
